Data reported in US11130959B2, “Methods and compositions for combinations of mutations associated with herbicide resistance/tolerance in rice” (priority 2016, dated 2021).

Tests used:
[1] = test system: rice line ML0831266-03093 (HPPDi + HPPDni); assay: Mesotrione tolerance trials
Description: FIG. 4 is a graphical representation of results of a trait tolerance trial wherein mesotrione was applied at the indicated rates about 34 days after planting.
In particular, a rate response experiment was conducted in which two different rates of mesotrione were applied pre-emergence, plus an additional foliar application was also applied.
Further validation of the trait involved testing the mutant line ML0831266-03093 in the presence of common rice weeds.
The mutant line is planted in rows or alternatively whole plots are planted and rows of the unmutated line (P1003) and other types of rice or whole plots are planted. Mesotrione is applied pre-emergence or alternatively it is applied post-emergence at the three to four leaf stage of the rice plants. Various rates of mesotrione are applied pre-emergence, pre-emergence followed by post-emergent, or post-emergent with a single or sequential application. Post-emergent applications are applied at the 3-4 leaf stage of the rice.

[2] = test system: rice line P1003 (unmutated parent); assay: Mesotrione tolerance trials; format: in vivo, Oryza sativa
[3] = test system: rice line ML0831265-01493; assay: Mesotrione tolerance trials; format: in vivo, Oryza sativa
[4] = test system: rice line R0146 (unmutated); assay: Mesotrione tolerance trials; format: in vivo, Oryza sativa; settings: low rates (105 gm ai/ha)
[5] = test system: F2 individuals from cross ML0831266-03093 x ML0831265-01493; assay: Herbicide bioassays on F2 individuals (Table 3); format: in vivo, Oryza sativa
Text: In the population sprayed with 105 gm ai/ha a single QTL found on chromosome 2 with strong linkage to SNP marker BG-id2004662 acted in a mostly dominate manner. This marker and QTL identifies the inherent tolerance in line P1003. The marker is useful for breeding and selection of new mesotrione tolerant lines. The discovery of this QTL facilitates commercial development of new rice varieties with a new method for controlling weeds through the use of mesotrione herbicide. The finding of the linked marker BG-id2004662 is a novel finding and selection strategy for breeding and selecting the tolerance to mesotrione and other herbicides derived from line P1003.
Combining the HPPD tolerance with the ACCase tolerance into a single rice line was initiated with the HPPD tolerance mapping project by crossing the HPPD tolerant line ML0831266-03093 to the ACCase tolerant line ML0831265-01493. In mapping the F2 population plants were selected for HPPD tolerance by applying mesotrione first at a low rate (105 gmai/ha) followed by a high rate (630 gmai/ha). In this process molecular markers were also developed allowing future selection of HPPD tolerance by either markers or herbicide tolerance screening or both.
In one example a rate of 105 gm ai/ha is applied followed three weeks later by a second application of 630 gm ai/ha. In another example a rate of 420 gm ai/ha is applied in a single application. Yet another example entails applying the herbicide at a rate of 630 gm ai/ha. Herbicide applications are done at the three to four leaf stage of seedling growth. The ideal situation is to have also planted near or within the F2 population a set of plants from the original mutant mesotrione donor line ML0831266-03093, a row of plants of the wild-type of the mutation line, P1003, and a row of the line involved as the other parent ML0831265-01493. These control lines will allow easy differentiation for inheritance of the tolerance provided by the ML0831266-03093 mutant line through comparison of the response in the F2 plants to these control lines. Only plants that live and are relatively healthy will have inherited and be homozygous for the tolerance level provided by the ML0831266-03093 mutant line.

[6] = test system: common weeds in rice (grass weeds such as barnyard grass); assay: Weed control in rice crops; format: in vivo
Description: FIGS. 5A and 5B are photographs of results of trait tolerance trials; weed control by mesotrione herbicide applied pre-planting was evaluated; the plots were planted with a hybrid of the HPPD tolerant line ML0831266-03093; just before planting, the plot on the right FIG. 5B received an application of mesotrione at 210 gmai/ha; the plot on the left FIG. 5A had no herbicide applied either pre-plant or post-emergence; pictures were taken four weeks after planting showing differences in weed appearance.
While testing the tolerant lines, the parent lines were also tested to serve as controls and as an indication of commercial potential as a red rice/wild weedy rice control strategy.
Rice is tolerant to certain ACCase inhibitor herbicides, for example cyhalofop is registered for use in rice. However other ACCase herbicides kill or severely injure rice to varying degrees. […] The applied rates of both types of herbicides giving the weed control are well within the tolerance level of the respective ACCase and HPPD tolerant lines including the combined lines carrying tolerance to both HPPD and ACCase herbicides.

[7] = test system: rice line PL1214418M2-73009; assay: Trial of recovery of HPPD tolerance in the combined line; format: in vivo, Oryza sativa; settings: 0.5×, 1×, 2×, 4× of 210 gmai/ha and sequential 1× and 2×
Description: Two trials were conducted to measure recovery of tolerance to both ACCase and HPPD herbicides in the new line PL1214418M2-73009. Recovery of tolerance in the line combining the two traits will illustrate that the traits are heritable and can be used to produce new varieties and hybrids carrying herbicide resistance. These trials are important as often times it is difficult to recover complex QTLs for quantitative traits or in some cases a traits response is dependent upon the genetic background. In the first trail the lines resistance to mesotrione (HPPD herbicide) was evaluated by planting line PL1214418M2-73009, the HPPD resistant line ML0831266-03093 and wild-type rice line P1003 and R0146 in plots (5 feet×10 feet). Mesotrione was applied at 0.5×, 1×, 2×, and 4× multiples of the labeled application rate (210 gmai/ha). Two additional treatments were included with a 1× and 2× rate followed by a second application 14 days afterward with the same rates.

[8] = test system: rice line PL1214418M2-73001 (HPPD mutation only); assay: Contribution of single HPPD tolerance genes, field rows sprayed at 4 leaf stage; format: in vivo, Oryza sativa; settings: 0.5×-4× of 210 gmai/ha, 4 weeks after application
Text: (§1) During the breeding process to develop new lines (PL1214418M2-80048 and PL1214418M2-73009) with resistance/tolerance to HPPD and ACCase herbicides, two other lines were also investigated to determine the contribution of the HPPD tolerance mutation and the HPPD tolerance native gene. The line PL1214418M2-73001 carries ACCase tolerance and only the HPPD tolerance, whereas […] PL1214418M2-73013 carries ACCase tolerance and only the HPPD native tolerance gene. These selections allow the estimation of the tolerance effect of each of the two genes required for tolerance to HPPD herbicides. The tolerance effect of each gene was measured by growing the lines in single rows including the newly developed line PL1214418M2-73009 that carries both the HPPD tolerance from the mutation and the non-induced tolerance, the HPPD tolerant line ML0831266-0309, and the non-induced parent line P1003. The field plots were sprayed at the 4 leaf stage with the HPPD herbicide mesotrione at 0.5×, 1×, 2×, and 4× multiples of the labeled application rate of 210 gmai/ha.

[9] = test system: rice line PL1214418M2-73013 (HPPD native tolerance gene only); assay: as above; format: in vivo, Oryza sativa; settings: 0.5×-4× of 210 gmai/ha, 4 weeks after application
Text: as §1

[10] = 105 gai/ha followed by second application of 630 gai/ha
[11] = single application at 105 gai/ha
[12] = single application at 420 gai/ha

CS(=O)(=O)c1ccc(C(=O)C2C(=O)CCCC2=O)c([N+](=O)[O-])c1 [mesotrione]
rate over which even lines with genetic resistance may be injured ([1]; FIG. 4 trial, 4 weeks after application): over 420 gmai/ha | tolerance of the crop in the presence of common rice weeds ([1]; applied rates): completely tolerant | survival ([1]; higher rates): survives | survival ([1]; low rates (105 gm ai/ha)): survive | survival ([2]; higher rates): killed or severally injured | survival ([2]; low rates (105 gm ai/ha)): survive | sensitivity ([3]; in vivo): highly sensitive | survival ([3]; low rates (105 gm ai/ha)): killed | survival [4]: killed | Observed number of Susceptible plants [5, 10]: 67 | Observed number of Tolerant plants [5, 10]: 28 | Observed number of Susceptible plants [5, 11]: 23 | Observed number of Tolerant plants [5, 11]: 64 | Observed number of Susceptible plants [5, 12]: 52 | Observed number of Tolerant plants [5, 12]: 26 | control of common weeds in rice ([6]; alone, especially pre-plant or at 2× the labeled rate of 210 gmai/ha): Control of common weeds in rice was also achieved | control of prevalent weed population ([6]; plots with line ML0831266-03093): well controlled | response compared with original trait line ML0831266-03093 [7]: same response | tolerance level between P1003 and ML0831266-0309 [8]: intermediate tolerance | tolerance level [9]: tolerance levels similar to the parent line P1003
